# Source: paper PMC5218480 (PLoS ONE, 2017)
# Test system: MV-4-11 cells
# Experiment: Gene expression microarray analysis (Affymetrix PrimeView) and GSEA
# Type: cell-based, human
# Parameters: RFU PODN (11730768_x_at) / Fold change /veh PODN (11730768_x_at) / RFU LINC00158 (11744669_a_at) / Fold change /veh LINC00158 (11744669_a_at) / RFU DUSP10 (11751237_a_at) / Fold change /veh DUSP10 (11751237_a_at) / RFU ID3 (11757404_x_at) / Fold change /veh ID3 (11757404_x_at) / RFU PLEKHG5 (11737974_s_at) / Fold change /veh PLEKHG5 (11737974_s_at) / RFU LRRC4B (11730491_at) / Fold change /veh LRRC4B (11730491_at) / RFU GIMAP4 (11747438_a_at) / Fold change /veh GIMAP4 (11747438_a_at) / RFU KRT8 (11758183_x_at) / Fold change /veh KRT8 (11758183_x_at) / RFU CNN1 (11734310_a_at) / Fold change /veh CNN1 (11734310_a_at) / RFU VPS37D (11726825_at) / Fold change /veh VPS37D (11726825_at) / RFU C10orf10 (11716522_x_at) / Fold change /veh C10orf10 (11716522_x_at) / RFU KIR2DL2 /// KIR2DL4 /// KIR2DL5A /// KIR2DL5B /// KIR2DS1 /// KIR2DS2 /// KIR2DS3 /// KIR2DS4 /// KIR3DL3 /// KIR3DL3 /// KIR3DS1 (11738374_at) / Fold change /veh KIR2DL2 /// KIR2DL4 /// KIR2DL5A /// KIR2DL5B /// KIR2DS1 /// KIR2DS2 /// KIR2DS3 /// KIR2DS4 /// KIR3DL3 /// KIR3DL3 /// KIR3DS1 (11738374_at) / RFU C1QL1 (11718748_at) / Fold change /veh C1QL1 (11718748_at) / RFU TMPRSS4 (11747572_a_at) / Fold change /veh TMPRSS4 (11747572_a_at) / RFU HAMP (11756126_x_at) / Fold change /veh HAMP (11756126_x_at) / RFU RNFT2 (11725882_a_at) / Fold change /veh RNFT2 (11725882_a_at) / RFU NR4A2 (11747474_a_at) / Fold change /veh NR4A2 (11747474_a_at) / RFU ABCC12 (11746883_a_at) / Fold change /veh ABCC12 (11746883_a_at) / RFU TMEM136 (11760407_x_at) / Fold change /veh TMEM136 (11760407_x_at) / RFU CLDN22 /// WWC2 (11732394_at) / Fold change /veh CLDN22 /// WWC2 (11732394_at) / RFU HLA-DPB1 (11760878_x_at) / Fold change /veh HLA-DPB1 (11760878_x_at) / RFU SPINT1 (11716480_a_at) / Fold change /veh SPINT1 (11716480_a_at) / RFU GAP43 (11754022_s_at) / Fold change /veh GAP43 (11754022_s_at) / RFU A4GNT (11735810_at) / Fold change /veh A4GNT (11735810_at) / RFU PRB3 (11715151_x_at) / Fold change /veh PRB3 (11715151_x_at) / RFU TUBB4B (11761932_at) / Fold change /veh TUBB4B (11761932_at) / RFU CAPN14 (11732068_a_at) / Fold change /veh CAPN14 (11732068_a_at) / RFU TMCC2 (11721928_a_at) / Fold change /veh TMCC2 (11721928_a_at) / RFU IRGQ (11745062_a_at) / Fold change /veh IRGQ (11745062_a_at) / RFU FAM174B (11720279_a_at) / Fold change /veh FAM174B (11720279_a_at) / RFU TMPRSS4 (11748680_a_at) / Fold change /veh TMPRSS4 (11748680_a_at) / RFU FAM212B (11763350_a_at) / Fold change /veh FAM212B (11763350_a_at) / RFU PLEKHG5 (11743358_a_at) / Fold change /veh PLEKHG5 (11743358_a_at) / RFU ZSCAN30 (11745921_a_at) / Fold change /veh ZSCAN30 (11745921_a_at) / RFU CMKLR1 (11741424_a_at) / Fold change /veh CMKLR1 (11741424_a_at) / RFU LOC101060620 /// MAPK8IP1 (11723275_at) / Fold change /veh LOC101060620 /// MAPK8IP1 (11723275_at) / RFU SPTSSB (11747773_x_at) / Fold change /veh SPTSSB (11747773_x_at) / RFU PRSS12 (11739890_at) / Fold change /veh PRSS12 (11739890_at) / RFU BIN1 (11741810_x_at) / Fold change /veh BIN1 (11741810_x_at) / RFU WNT11 (11732464_a_at) / Fold change /veh WNT11 (11732464_a_at) / RFU C10orf10 (11716521_a_at) / Fold change /veh C10orf10 (11716521_a_at) / RFU C5orf56 (11738089_at) / Fold change /veh C5orf56 (11738089_at) / RFU CYB561 (11721691_x_at) / Fold change /veh CYB561 (11721691_x_at) / RFU ANKRD19P (11752326_a_at) / Fold change /veh ANKRD19P (11752326_a_at) / RFU OR2T12 /// OR2T33 /// OR2T8 (11738714_s_at) / Fold change /veh OR2T12 /// OR2T33 /// OR2T8 (11738714_s_at) / RFU VCAN (11748164_a_at) / Fold change /veh VCAN (11748164_a_at) / RFU JSRP1 (11732532_at) / Fold change /veh JSRP1 (11732532_at) / RFU KRTAP10-11 (11738290_x_at) / Fold change /veh KRTAP10-11 (11738290_x_at) / RFU MYO3A (11730013_a_at) / Fold change /veh MYO3A (11730013_a_at) / RFU EBF3 (11725865_a_at) / Fold change /veh EBF3 (11725865_a_at) / RFU CAMK2N1 (11719241_x_at) / Fold change /veh CAMK2N1 (11719241_x_at) / RFU C5orf56 (11738088_a_at) / Fold change /veh C5orf56 (11738088_a_at) / RFU OLFML3 (11715873_a_at) / Fold change /veh OLFML3 (11715873_a_at) / RFU LOC100653217 /// NTM (11731650_a_at) / Fold change /veh LOC100653217 /// NTM (11731650_a_at) / RFU MAPK11 (11762145_a_at) / Fold change /veh MAPK11 (11762145_a_at) / RFU FIZ1 (11724087_x_at) / Fold change /veh FIZ1 (11724087_x_at) / RFU OASL (11726364_x_at) / Fold change /veh OASL (11726364_x_at) / RFU SOX15 (11748057_x_at) / Fold change /veh SOX15 (11748057_x_at) / RFU CD79A (11719716_a_at) / Fold change /veh CD79A (11719716_a_at) / RFU HIST1H1D (11736915_at) / Fold change /veh HIST1H1D (11736915_at) / RFU CASKIN2 (11723855_a_at) / Fold change /veh CASKIN2 (11723855_a_at) / RFU LOC730098 (11760151_x_at) / Fold change /veh LOC730098 (11760151_x_at) / RFU OR4N2 (11742367_at) / Fold change /veh OR4N2 (11742367_at) / RFU PRRT2 (11749266_a_at) / Fold change /veh PRRT2 (11749266_a_at) / RFU SNX32 (11753110_a_at) / Fold change /veh SNX32 (11753110_a_at) / RFU CDHR5 (11726645_a_at) / Fold change /veh CDHR5 (11726645_a_at) / RFU RCAN1 (11760418_a_at) / Fold change /veh RCAN1 (11760418_a_at) / RFU FAM167A (11723789_a_at) / Fold change /veh FAM167A (11723789_a_at) / RFU FAM26E (11764081_at) / Fold change /veh FAM26E (11764081_at) / RFU ISYNA1 (11749810_s_at) / Fold change /veh ISYNA1 (11749810_s_at) / RFU ACY1 (11761880_at) / Fold change /veh ACY1 (11761880_at) / RFU 11764098_at / Fold change /veh 11764098_at / RFU SAMD14 (11745864_x_at) / Fold change /veh SAMD14 (11745864_x_at) / RFU NPB (11741838_a_at) / Fold change /veh NPB (11741838_a_at) / RFU TMPRSS6 (11731388_a_at) / Fold change /veh TMPRSS6 (11731388_a_at) / RFU KRTAP10-2 (11738614_at) / Fold change /veh KRTAP10-2 (11738614_at) / RFU ARHGAP8 /// PRR5-ARHGAP8 (11727945_x_at) / Fold change /veh ARHGAP8 /// PRR5-ARHGAP8 (11727945_x_at) / RFU KRTAP5-7 /// NADSYN1 (11734609_at) / Fold change /veh KRTAP5-7 /// NADSYN1 (11734609_at) / RFU RASL12 (11751679_a_at) / Fold change /veh RASL12 (11751679_a_at) / RFU CDKN2B (11736163_a_at) / Fold change /veh CDKN2B (11736163_a_at) / RFU PRF1 (11729649_at) / Fold change /veh PRF1 (11729649_at) / RFU, ZNF638 /// ZNF638-IT1 / Fold change vs veh, ZNF638 /// ZNF638-IT1 / RFU, PANK3 / Fold change vs veh, PANK3 / RFU, SH3YL1 / Fold change vs veh, SH3YL1 / RFU, ZEB2 / Fold change vs veh, ZEB2 / RFU, NRIP1 / Fold change vs veh, NRIP1 / RFU, PTTG1IP / Fold change vs veh, PTTG1IP / RFU, CAPN2 / Fold change vs veh, CAPN2 / RFU, MED14 / Fold change vs veh, MED14 / RFU, SNORA58 / Fold change vs veh, SNORA58 / RFU, C1orf63 / Fold change vs veh, C1orf63 / RFU, LRRFIP1 / Fold change vs veh, LRRFIP1 / RFU, NDUFAF7 / Fold change vs veh, NDUFAF7 / RFU, SLC12A2 / Fold change vs veh, SLC12A2 / RFU, IBTK / Fold change vs veh, IBTK / RFU, ESF1 / Fold change vs veh, ESF1 / Fold change vs veh, TMEM50B / RFU, TAOK1 / Fold change vs veh, TAOK1 / RFU, ACBD3 / Fold change vs veh, ACBD3 / RFU, TMA16 / Fold change vs veh, TMA16 / RFU, RWDD3 / Fold change vs veh, RWDD3 / RFU, BCAT1 / Fold change vs veh, BCAT1 / RFU, EDEM3 / Fold change vs veh, EDEM3 / RFU, TMEM33 / Fold change vs veh, TMEM33 / RFU, WDR75 / Fold change vs veh, WDR75 / RFU, AHCTF1 / Fold change vs veh, AHCTF1 / RFU, TFRC / Fold change vs veh, TFRC / RFU, ZDHHC17 / Fold change vs veh, ZDHHC17 / RFU, NOM1 / Fold change vs veh, NOM1 / RFU, ARL8B / Fold change vs veh, ARL8B / RFU, ZBTB11 / Fold change vs veh, ZBTB11 / RFU, TAMM41 / Fold change vs veh, TAMM41 / RFU, KIAA1704 /// LOC100996395 / Fold change vs veh, KIAA1704 /// LOC100996395 / RFU, ING1 / Fold change vs veh, ING1 / RFU, TRMT61B / Fold change vs veh, TRMT61B / RFU, FUBP3 / Fold change vs veh, FUBP3 / RFU, TP53 / Fold change vs veh, TP53 / RFU, TNKS2 / Fold change vs veh, TNKS2 / RFU, ZFP14 / Fold change vs veh, ZFP14 / RFU, ACTR2 / Fold change vs veh, ACTR2 / RFU, PPP3R1 / Fold change vs veh, PPP3R1 / RFU, PIK3R1 / Fold change vs veh, PIK3R1 / RFU, HNRNPA1 / Fold change vs veh, HNRNPA1 / RFU, RNF170 / Fold change vs veh, RNF170 / RFU, ZNF28 / Fold change vs veh, ZNF28 / RFU, RNGTT / Fold change vs veh, RNGTT / RFU, OGT / Fold change vs veh, OGT / RFU, BRD1 / Fold change vs veh, BRD1 / RFU, MARS / Fold change vs veh, MARS / RFU, ZNF655 / Fold change vs veh, ZNF655 / RFU, FAHD1 / Fold change vs veh, FAHD1 / RFU, BDP1 / Fold change vs veh, BDP1 / RFU, LRRCC1 / Fold change vs veh, LRRCC1 / RFU, ARID1A / Fold change vs veh, ARID1A / RFU, ZNF146 / Fold change vs veh, ZNF146 / RFU, ZNF330 / Fold change vs veh, ZNF330 / RFU, GPN3 / Fold change vs veh, GPN3 / RFU, C9orf123 / Fold change vs veh, C9orf123 / RFU, N4BP2L2 / Fold change vs veh, N4BP2L2 / RFU, ARFIP1 / Fold change vs veh, ARFIP1 / RFU, FAM179B / Fold change vs veh, FAM179B / RFU, BCL10 / Fold change vs veh, BCL10 / RFU, UHRF1BP1L / Fold change vs veh, UHRF1BP1L / RFU, BET1 / Fold change vs veh, BET1 / RFU, CNOT2 / Fold change vs veh, CNOT2 / RFU, ZNF268 / Fold change vs veh, ZNF268 / Fold change vs veh, ZNF507 / RFU, DGCR2 / Fold change vs veh, DGCR2 / RFU, WDSUB1 / Fold change vs veh, WDSUB1 / Fold change vs veh, HSP90B1 /// MIR3652 / RFU, ADSS / Fold change vs veh, ADSS / RFU, GK / Fold change vs veh, GK / RFU, ZNF148 / Fold change vs veh, ZNF148 / RFU, TAF9 / Fold change vs veh, TAF9 / RFU, SLC1A5 / Fold change vs veh, SLC1A5 / RFU, SLMO2 / Fold change vs veh, SLMO2 / RFU, ABCC4 / Fold change vs veh, ABCC4 / RFU, LOC101060439 /// RAP1B / Fold change vs veh, LOC101060439 /// RAP1B / RFU, RFX7 / Fold change vs veh, RFX7 / RFU, GTPBP10 / Fold change vs veh, GTPBP10 / RFU, CNEP1R1 / Fold change vs veh, CNEP1R1 / RFU, BIVM-ERCC5 /// ERCC5 / Fold change vs veh, BIVM-ERCC5 /// ERCC5 / RFU, ILF3 / Fold change vs veh, ILF3 / RFU 11762660_at / Fold change /veh 11762660_at / RFU VCAN (11757783_s_at) / Fold change /veh VCAN (11757783_s_at) / RFU DDX43 (11728927_at) / Fold change /veh DDX43 (11728927_at) / RFU KRT8 (11758188_x_at) / Fold change /veh KRT8 (11758188_x_at) / RFU NKD1 (11759106_at) / Fold change /veh NKD1 (11759106_at) / RFU SRD5A1 (11742802_a_at) / Fold change /veh SRD5A1 (11742802_a_at) / RFU TPSAB1 /// TPSB2 (11721975_s_at) / Fold change /veh TPSAB1 /// TPSB2 (11721975_s_at) / RFU GSTM3 (11746129_a_at) / Fold change /veh GSTM3 (11746129_a_at) / RFU IL23R (11737362_x_at) / Fold change /veh IL23R (11737362_x_at) / RFU TMEM51 (11727254_a_at) / Fold change /veh TMEM51 (11727254_a_at) / RFU PIWIL2 (11732686_x_at) / Fold change /veh PIWIL2 (11732686_x_at) / RFU ORM1 (11744905_x_at) / Fold change /veh ORM1 (11744905_x_at) / RFU CCDC152 (11743942_at) / Fold change /veh CCDC152 (11743942_at) / RFU ECM1 (11717891_a_at) / Fold change /veh ECM1 (11717891_a_at) / RFU IL23R (11748794_a_at) / Fold change /veh IL23R (11748794_a_at) / RFU TNFAIP8L3 (11732012_x_at) / Fold change /veh TNFAIP8L3 (11732012_x_at) / RFU MBOAT4 (11741988_at) / Fold change /veh MBOAT4 (11741988_at) / RFU 11764193_at / Fold change /veh 11764193_at / RFU TMEM53 (11763286_at) / Fold change /veh TMEM53 (11763286_at) / RFU MAGEB2 (11727129_at) / Fold change /veh MAGEB2 (11727129_at) / RFU TMEM200A (11744735_a_at) / Fold change /veh TMEM200A (11744735_a_at) / RFU CCDC152 (11751479_a_at) / Fold change /veh CCDC152 (11751479_a_at) / RFU FAM211A (11726209_a_at) / Fold change /veh FAM211A (11726209_a_at) / RFU RGS16 (11746705_a_at) / Fold change /veh RGS16 (11746705_a_at) / RFU VCAN (11755009_s_at) / Fold change /veh VCAN (11755009_s_at) / RFU RHOB (11743442_s_at) / Fold change /veh RHOB (11743442_s_at) / RFU RGS16 (11720943_a_at) / Fold change /veh RGS16 (11720943_a_at) / RFU RGS16 (11720944_at) / Fold change /veh RGS16 (11720944_at) / RFU, VPS4B / Fold change vs veh, VPS4B / RFU, CREB1 / Fold change vs veh, CREB1 / RFU, DNAJC13 / Fold change vs veh, DNAJC13 / RFU, GNAQ / Fold change vs veh, GNAQ / RFU, CDK5R1 / Fold change vs veh, CDK5R1 / RFU, ZRANB3 / Fold change vs veh, ZRANB3 / RFU, CUL4A / Fold change vs veh, CUL4A / RFU, CCNY / Fold change vs veh, CCNY / RFU, UFL1 / Fold change vs veh, UFL1 / RFU, COG3 / Fold change vs veh, COG3 / RFU, DIAPH2 / Fold change vs veh, DIAPH2 / RFU, SKA2 / Fold change vs veh, SKA2 / RFU, AFF3 / Fold change vs veh, AFF3 / RFU, LMF1 / Fold change vs veh, LMF1 / RFU, IPO11 / Fold change vs veh, IPO11 / RFU, DFFB / Fold change vs veh, DFFB / RFU, FOXP1 / Fold change vs veh, FOXP1 / RFU, CARD8 / Fold change vs veh, CARD8 / RFU, STRN3 / Fold change vs veh, STRN3 / RFU, ADK / Fold change vs veh, ADK / RFU, RASSF2 / Fold change vs veh, RASSF2 / RFU, WIPF1 / Fold change vs veh, WIPF1 / RFU, LARP1B / Fold change vs veh, LARP1B / RFU, RASA1 / Fold change vs veh, RASA1 / RFU, RB1 / Fold change vs veh, RB1 / RFU, PPFIA1 / Fold change vs veh, PPFIA1 / RFU, MAT2A / Fold change vs veh, MAT2A / RFU, CCT5 / Fold change vs veh, CCT5 / RFU, WDR92 / Fold change vs veh, WDR92 / RFU, CUX1 / Fold change vs veh, CUX1 / RFU, TTC7A / Fold change vs veh, TTC7A / RFU, TMEM135 / Fold change vs veh, TMEM135 / RFU, DEPTOR / Fold change vs veh, DEPTOR / RFU, CPM / Fold change vs veh, CPM / RFU, DNAJB6 / Fold change vs veh, DNAJB6 / RFU, CACNA2D3 / Fold change vs veh, CACNA2D3 / RFU, DTX4 / Fold change vs veh, DTX4 / RFU, TFCP2 / Fold change vs veh, TFCP2 / RFU, GMCL1 /// GMCL1P1 / Fold change vs veh, GMCL1 /// GMCL1P1 / RFU, AEBP2 / Fold change vs veh, AEBP2 / RFU, SNHG1 /// SNORD22 /// SNORD25 /// SNORD26 /// SNORD27 /// SNORD28 /// SNORD29 /// SNORD31 / Fold change vs veh, SNHG1 /// SNORD22 /// SNORD25 /// SNORD26 /// SNORD27 /// SNORD28 /// SNORD29 /// SNORD31 / Fold change (Aza/veh), C12orf56 (ProbeSet 11735607_a_at) / Fold change (ACY-1035/veh), C12orf56 (ProbeSet 11735607_a_at) / Fold change (Aza/veh), FGFR1OP (ProbeSet 11751329_s_at) / Fold change (ACY-1035/veh), FGFR1OP (ProbeSet 11751329_s_at) / Fold change (Aza/veh), VPS36 (ProbeSet 11739960_a_at) / Fold change (ACY-1035/veh), VPS36 (ProbeSet 11739960_a_at) / RFU SYPL1 (11715823_x_at) / Fold change /veh SYPL1 (11715823_x_at) / RFU IGFBP7 (11715501_s_at) / Fold change /veh IGFBP7 (11715501_s_at) / RFU REEP3 (11722064_at) / Fold change /veh REEP3 (11722064_at) / RFU IGLL1 (11728026_x_at) / Fold change /veh IGLL1 (11728026_x_at): dose or concentration left out as unconfirmed
# Settings: MV-4-11 cells, 48 hours
smiles,measurement,value
Nc1ncn([C@@H]2O[C@H](CO)[C@@H](O)[C@H]2O)c(=O)n1 [azacitidine],Fold change /veh MAPK11 (11762145_a_at),1.03
